Test results reported in patent US20230286973A1, “PROTEIN SECRETION INHIBITORS” (KEZAR LIFE SCIENCES, priority 2020, published 2023).

Tests used:
[1] = Liver Microsome Stability Assay (monkey); conditions: monkey liver microsomes, with NADPH, 1.0 uM compound
Procedure: (§1) Stability of a compound was assessed in the presence of liver microsomes from various sources—mouse, rat, monkey and human liver microsomes. 1.0 uM compound, 0.4% DMSO in 0.1 M Potassium Phosphate with 1.0 mg/mL liver microsomes, were incubated at 37° C. with or without 1 mM NADPH. The samples were quenched at 0, and 30 minutes.

[2] = tested on: multiple myeloma cell line U266B1; experiment: U266 Cell Viability Assay; type: cell-based, human; conditions: Homo sapiens, U-266, 48 h, U266B1 cells, Celltiter-Glo
In short: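 Viability is measured as luciferase signal from CellTiter-Glo following a 48-hour incubation with compound at 37° C. under 5% CO2. Where structures lack drawn stereochemistry, values refer to stereoisomer mixtures.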

[3] = Liver Microsome Stability Assay (rat); conditions: rat liver microsomes, with NADPH, 1.0 uM compound
Procedure: as §1

[4] = Liver Microsome Stability Assay (human); conditions: human liver microsomes, with NADPH, 1.0 uM compound
Procedure: as §1

[5] = tested on: IL-2-FL/Gaussia Luciferase; experiment: Dox Induced IL2-FL-Gluc Assay; type: cell-based; conditions: for IC50: 24 hr Dox induction, 293FRT/TO cells, read-out: 24 hr Dox Inducible IL2FLGluc 293FRT/TO: Mean IC50; for 24 hr Dox Inducible IL2FLGluc 293FRT/TO: IL2/PD1: ratio of IL2FLGluc IC50 to PD1ssGluc IC50
In short: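 Doxycycline induces an IL-2(1-153)–Gaussia luciferase fusion in a stable Flp-In 293 T-REx line. Compound exposure runs alongside induction at 37° C.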

[6] = Liver Microsome Stability Assay (mouse); conditions: mouse liver microsomes, with NADPH, 1.0 uM compound
Procedure: as §1

[7] = tested on: HER3-ss+4aa/Gaussia Luciferase; experiment: Dox-Induced Her3-ss-Gluc Assay; type: cell-based; conditions: 24 hr Dox induction; 293FRT/TO cells; read-out: 24 hr Dox Inducible Her3(ss + 4)Gluc 293FRT/TO: Mean IC50
In short: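 Reporter line: Flp-In 293 T-REx, T-REx-regulated HER3-ss+4aa fused to Gaussia luciferase. Compound co-added with doxycycline after overnight plating, 37° C., 5% CO2.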

[8] = tested on: multiple myeloma cell line NCI-H929; experiment: H929 Cell Viability Assay; type: cell-based, human; conditions: Homo sapiens, NCI-H929, 48 h, NCI-H929 cells, Celltiter-Glo
In short: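 Viability is scored by CellTiter-Glo luminescence following a 48-hour treatment at 37° C. Data for structures shown without stereochemistry refer to stereoisomer mixtures.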

[9] = tested on: TNFα-FL/Gaussia Luciferase; experiment: Dox Induced TNFα-FL-Gluc Assay; type: cell-based; conditions: for IC50: 24 hr Dox induction, 293FRT/TO cells, read-out: 24 hr Dox Inducible TNFaFLGluc 293FRT/TO: Mean IC50; for 24 hr Dox Inducible TNFaFLGluc 293FRT/TO: TNF/PD1: ratio of TNFaFLGluc IC50 to PD1ssGluc IC50
In short: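 Doxycycline-inducible Gaussia luciferase-tagged full-length TNFα (1-233) was expressed in stable Flp-In 293 T-REx cells. Compounds were co-added with doxycycline and incubated at 37 °C, 5% CO2.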

[10] = tested on: PD1-ss+10aa/Gaussia Luciferase; experiment: Dox-Induced PD1-ss-Gluc Assay; type: cell-based; conditions: 24 hr Dox induction; 293FRT/TO cells; read-out: 24 hr Dox Inducible PD1ssGluc 293FRT/TO: Mean IC50
In short: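 The cell line was made by transfecting Flp-In 293 T-REx cells with a PD1 signal sequence+10aa–Gaussia luciferase fusion under T-REx control and selecting with hygromycin and blasticidin. Cells were seeded, and next day compound plus doxycycline was added at 37 °C, 5% CO2.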

Liver Microsome Stability (Multiple Species): Monkey - % Remaining after 30 min w/NADPH [1]	EC50 [2]	Liver Microsome Stability (Multiple Species): Rat - % Remaining after 30 min w/NADPH [3]	Liver Microsome Stability (Multiple Species): Human - % Remaining after 30 min w/NADPH [4]	IC50 [5]	Liver Microsome Stability (Multiple Species): Mouse - % Remaining after 30 min w/NADPH [6]	IC50 [7]	EC50 [8]	IC50 [9]	IC50 [10]	Compound	24 hr Dox Inducible IL2FLGluc 293FRT/TO: IL2/PD1 [5]	24 hr Dox Inducible TNFaFLGluc 293FRT/TO: TNF/PD1 [9]
4.58%	> 25000 nM	55.7%	10.5%	79.8 nM	31.2%	36.4 nM	884 nM	310 nM	23.2 nM	O=C(Nc1nc([C@H]2CCCN2c2ccc(OC3CN(C(=O)CO)C3)cc2)cs1)c1cccn1Cc1ccnc(F)c1 [Compound A110, (R)-1-((2-fluoropyridin-4-yl)methyl)-N-(4-(1-(4-((1-(2-hydroxyacetyl)azetidin-3-yl)oxy)phenyl)pyrrolidin-2-yl)thiazol-2-yl)-1H-pyrrole-2-carboxamide]	3.4	13.4
3.48%	> 25000 nM	7.97%	2.78%	16.3 nM	12.7%	13.6 nM	422 nM	94.5 nM	7.92 nM	C[C@@H](O)c1ccc(N2CCC[C@@H]2c2csc(NC(=O)c3cccn3Cc3ccnc(F)c3)n2)cc1 [Compound A111, 1-((2-fluoropyridin-4-yl)methyl)-N-(4-((R)-1-(4-((R)-1-hydroxyethyl)phenyl)pyrrolidin-2-yl)thiazol-2-yl)-1H-pyrrole-2-carboxamide]	2.1	11.9
0.35%	> 25000 nM	6.03%	3.41%	8.64 nM	5.81%	5.98 nM	408 nM	40 nM	3.81 nM	C[C@H](O)c1ccc(N2CCC[C@@H]2c2csc(NC(=O)c3cccn3Cc3ccnc(F)c3)n2)cc1 [Compound A112, 1-((2-fluoropyridin-4-yl)methyl)-N-(4-((R)-1-(4-((S)-1-hydroxyethyl)phenyl)pyrrolidin-2-yl)thiazol-2-yl)-1H-pyrrole-2-carboxamide]	2.3	10.5
1.3%	> 25000 nM	0.64%	0.61%	17.9 nM	4.74%	22.6 nM	615 nM	136 nM	9.82 nM	O=C(Nc1nc([C@H]2CCCN2c2ccc(CO)cc2)cs1)c1cccn1Cc1ccnc(F)c1 [Compound A113, (R)-1-((2-fluoropyridin-4-yl)methyl)-N-(4-(1-(4-(hydroxymethyl)phenyl)pyrrolidin-2-yl)thiazol-2-yl)-1H-pyrrole-2-carboxamide]	1.8	13.9
0.43%	> 25000 nM	8.6%	3.96%	54.9 nM	13%	87.8 nM	1020 nM	551 nM	36.1 nM	O=C(Nc1nc([C@H]2CCCN2c2ccc(C3(O)CCC3)cc2)cs1)c1cccn1Cc1ccnc(F)c1 [Compound A114, (R)-1-((2-fluoropyridin-4-yl)methyl)-N-(4-(1-(4-(1-hydroxycyclobutyl)phenyl)pyrrolidin-2-yl)thiazol-2-yl)-1H-pyrrole-2-carboxamide]	1.5	15.2
3.2%	7270 nM	9.02%	14.6%	122 nM	3.39%	89.3 nM	2000 nM	587 nM	41.5 nM	Cc1cc(C(=O)Nc2nc([C@H]3CCCN3c3ccccc3)cs2)n(Cc2ccncc2)c1 [Compound A115, (R)-4-methyl-N-(4-(1-phenylpyrrolidin-2-yl)thiazol-2-yl)-1-(pyridin-4-ylmethyl)-1H-pyrrole-2-carboxamide]	2.9	14.1
18.9%	> 25000 nM	37.7%	45.3%	4.93 nM	60.7%	4.14 nM	160 nM	39.5 nM	2 nM	O=C(Nc1nc([C@H]2CCCN2c2ccc(Br)cc2)cs1)c1cccn1Cc1ccnc(F)c1 [Compound A116]	2.5	19.7
0.09%	> 25000 nM	8.86%	2.64%	51 nM	0.81%	33.4 nM	938 nM	301 nM	28.2 nM	CC(=O)N(C)CCOc1ccc(N2CCC[C@@H]2c2csc(NC(=O)c3cccn3Cc3ccnc(F)c3)n2)cc1 [Compound A117, (R)-1-((2-fluoropyridin-4-yl)methyl)-N-(4-(1-(4-(2-(N-methylacetamido)ethoxy)phenyl)pyrrolidin-2-yl)thiazol-2-yl)-1H-pyrrole-2-carboxamide]	1.8	10.7
1.57%	> 25000 nM	9.82%	8.26%	20.7 nM	7.09%	17.5 nM	447 nM	180 nM	10.9 nM	CC(=O)NCCOc1ccc(N2CCC[C@@H]2c2csc(NC(=O)c3cccn3Cc3ccnc(F)c3)n2)cc1 [Compound A121, (R)-N-(4-(1-(4-(2-acetamidoethoxy)phenyl)pyrrolidin-2-yl)thiazol-2-yl)-1-((2-fluoropyridin-4-yl)methyl)-1H-pyrrole-2-carboxamide]	1.9	16.5
